This note sets out measurements from PubChem BioAssay (NCI).

Among the test systems are T-47D breast; MCF7 breast; MDA-N; DLD-1 colon; SNB-78 CNS; LXFL 529 NSCLC; DMS 114 small cell lung.
What all share (experiment): inhibition of tumour cell growth, NCI panel, 48 h

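Growth conditions: 96-well plates. Treatment: test compound, 48 hours, 5 concentrations. Analysis: linear interpolation between bracketing concentrations; unreached endpoints set to highest concentration. GI50 is the concentration that inhibits growth by half. TGI is the concentration that stops growth completely.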 Where a SMILES comes first, the peptide text is derived from it. [ ]: non-standard residue; d: D form. NMeY = CN[C@@H](Cc1ccc(O)cc1)C(=O)O; dNMeF = CN[C@H](Cc1ccccc1)C(=O)O; Sar = CNCC(=O)O

As for `CNNC(=N\S(=O)(=O)c1cc(C(=O)Nc2ccc(Cl)cc2)c(Cl)cc1SCc1ccccc1)/N=C/c1ccc([N+](=O)[O-])s1`, the GI50 in the assay with T-47D breast is 7.07 µM; with MCF7 breast, more than 100 µM. Moreover, the TGI in the assay on T-47D breast and in the assay with MCF7 breast was more than 100 µM throughout.

`c1ccc(-c2nnc(Nc3ccc4c(c3)OCCO4)o2)c(NCc2ccncc2)c1`: in the assay with T-47D breast, the GI50 was 1.65 µM and the TGI amounted to 16.9 µM. Further, in the assay on MCF7 breast, the GI50 was 0.0904 µM and the TGI is more than 38.8 µM.

On to `COc1cc2nc(N3CCCC3)nc(Nc3ccccc3)c2cc1OC`, for which, in the assay on MCF7 breast, the GI50 was 0.637 µM and the TGI came to 2.29 µM.

In the case of `O=C(O)C[O][Sb][O]CC(=O)O`, in the assay on T-47D breast, the GI50 was more than 100 µM and the TGI was more than 100 µM. Moreover, in the assay on MDA-N, the GI50 is more than 100 µM and the TGI is more than 100 µM.

Turning to `Nc1nc(N)c(N=O)c(Nc2ccc(I)cc2)n1`, the TGI in the assay with DLD-1 colon stood at 21.6 µM; in the assay on SNB-78 CNS it was 66.6 µM; with LXFL 529 NSCLC it was 60.6 µM; with DMS 114 small cell lung it was 64.9 µM.

With `S=C=NCc1ccccc1`, the TGI with T-47D breast came out at 33.3 µM; in the assay with MDA-N, 12.4 µM; in the assay with MCF7 breast it was 28.6 µM.

With `CC1=CC2=C(C(N)=O)C(=O)OC2(C)C(c2ccccc2)C1` (stereo not drawn), the TGI in the assay with MDA-N and in the assay with MCF7 breast was more than 100 µM in each case.

For `Nc1c(C(=O)c2cccc(C#CCN3CCOCC3)c2)cnn1-c1ccc(F)cc1`, in the assay on T-47D breast, the GI50 is 8.83 µM and the TGI was more than 25 µM. For the same molecule, in the assay on MCF7 breast, the GI50 was 11.7 µM and the TGI was more than 25 µM.

For the molecule `CCN(CC)CCCOc1cc(O)c2c(=O)cc(-c3ccccc3)oc2c1`, in the assay on T-47D breast, the GI50 is 15.5 µM and the TGI was 33.4 µM. In addition, in the assay with MCF7 breast, the GI50 is 4.16 µM and the TGI is 16.2 µM.

Turning to `C[C@H]1[C@H](C)CC[C@]2(C(=O)O)CC[C@]3(C)C(=CC[C@@H]4[C@@]5(C)CC[C@H](OC(=O)/C=C/c6ccc(O)cc6)C(C)(C)[C@@H]5CC[C@]43C)[C@H]12`, in the assay with T-47D breast, the GI50 is 13.3 µM and the TGI is more than 60.1 µM. In addition, in the assay on MCF7 breast, the GI50 was 3.02 µM and the TGI came out at 34.4 µM.

`COc1ccc2[nH]c(=O)c(/C=C/C(=O)/C=C/c3ccc(O)c(OC)c3)cc2c1`: in the assay with T-47D breast, the GI50 was 2.63 µM and the TGI came to 13.9 µM. Besides, in the assay with MCF7 breast, the GI50 is 0.388 µM and the TGI amounted to 1.89 µM.

On to `O=C(O)c1ccc(NCc2nc3cc4ccccc4cc3[nH]2)cc1`, for which the TGI was more than 100 µM with T-47D breast, more than 100 µM with MDA-N and 46.9 µM in the assay with MCF7 breast.

As for `CO/N=C(/COc1c(-c2ccccc2)oc2ccccc2c1=O)c1ccc(OC)cc1`, in the assay on T-47D breast, the GI50 was 26.9 µM and the TGI is more than 100 µM.

Take `NC(CSc1nc2ccccn2c1[N+](=O)[O-])C(=O)O` (stereo not drawn): the TGI in the assay on T-47D breast, with MDA-N and with MCF7 breast was more than 100 µM throughout.

Consider `CCN(C(=O)CCl)C(C)(C)C(SSSC(c1ccc(Cl)cc1)C(C)(C)N(CC)C(=O)CCl)c1ccc(Cl)cc1` (stereo not drawn), for which the GI50 in the assay with T-47D breast was 5.3 µM; in the assay with MCF7 breast it was 5.09 µM. Moreover, the TGI in the assay with T-47D breast is 26.3 µM; with MCF7 breast, 21.9 µM.

Turning to `CN(C)CCNC(=O)Cn1ccc(=O)c2ccc([N+](=O)[O-])cc21`, the TGI with T-47D breast, with MDA-N and in the assay on MCF7 breast was more than 100 µM throughout.

Turning to `COc1ccc(-c2cc(-c3cn[nH]c3-c3ccccn3)ccn2)cc1`, in the assay with T-47D breast, the GI50 is more than 25 µM and the TGI is more than 25 µM. Further, in the assay on MCF7 breast, the GI50 was more than 25 µM and the TGI was more than 25 µM.

`Nc1c(C(=O)c2cccc(CCC3(O)CCCC3)c2)cnn1-c1ccc(F)cc1`: the results for the GI50 in the assay on T-47D breast and in the assay on MCF7 breast were 6.52 µM and 9.65 µM, respectively. Besides, the TGI in the assay with T-47D breast and with MCF7 breast was more than 25 µM in each case.

Turning to `C[C@]12CCC3c4ccc(O)cc4CCC3C1Cc1ccc(O)cc12` (stereo partly drawn), in the assay with T-47D breast, the GI50 is 13.1 µM and the TGI came to 30.9 µM. Moreover, in the assay on MCF7 breast, the GI50 was 4.83 µM and the TGI was determined as 17.8 µM.

Turning to `O=C(NC(=S)NNC(=S)NNc1ccccc1)c1ccccc1`, the GI50 in the assay with T-47D breast is 3.24 µM; with MCF7 breast, 2.92 µM. Moreover, the TGI with T-47D breast and with MCF7 breast was more than 100 µM throughout.

As for `CO[C@H]1C[C@@H]2CC[C@@H](C)[C@@](O)(O2)C(=O)C(=O)N2CCCC[C@H]2C(=O)O[C@H]([C@H](C)C[C@@H]2CC[C@@H](OP(C)(C)=O)[C@H](OC)C2)CC(=O)[C@H](C)/C=C(\C)[C@@H](O)[C@@H](OC)C(=O)[C@H](C)C[C@H](C)/C=C/C=C/C=C/1C`, the GI50 in the assay with T-47D breast was less than 0.01 µM; with MCF7 breast it was 0.402 µM. Also, the TGI was 23 µM in the assay on T-47D breast and 21 µM in the assay with MCF7 breast.

Regarding `Cc1ccc(N=Nc2c(N)nn(-c3ccccc3)c2N)cc1`, the GI50 in the assay with T-47D breast is 1.74 µM; in the assay on MCF7 breast it was 0.67 µM. In addition, the TGI in the assay with T-47D breast and with MCF7 breast was more than 100 µM throughout.

Consider `CC[C@H](C)[C@@H]1NC(=O)[C@H](Cc2ccc(O)cc2)N(C)C(=O)[C@H](Cc2ccccc2)NC(=O)CN(C)C(=O)[C@@H]2CCCN2C(=O)[C@@H](Cc2ccccc2)N(C)C(=O)[C@H](CC(C)C)NC1=O` (cyclo(F[NMeY]IL[dNMeF]P[Sar])), for which, in the assay with T-47D breast, the GI50 was 0.157 µM and the TGI came out at 6.21 µM. In the assay with MCF7 breast, the GI50 was 0.103 µM and the TGI was determined as 2.69 µM.

With `O=C1OC(C2=CC(=O)c3ccccc3C2=O)C(Cl)=C1Cl` (stereo not drawn), the figures for the TGI in the assay on T-47D breast, in the assay on MDA-N and in the assay with MCF7 breast were 83.7 µM, more than 100 µM and 44.8 µM, respectively.

`CCOC(=O)Cn1c(C)c(/C=N/NC(=O)c2cc3c(ccc4ccccc43)o2)c2ccccc21`: in the assay with T-47D breast, the GI50 is 0.653 µM and the TGI was more than 27.8 µM. Besides, in the assay on MCF7 breast, the GI50 is 0.31 µM and the TGI came out at 4.85 µM.

Consider `COc1cccc(-n2ncc3c(N/N=C/c4ccc(S(C)(=O)=O)cc4)ncnc32)c1`, for which the GI50 with T-47D breast was 7.4 µM; in the assay on MCF7 breast, 9.87 µM. Also, the TGI in the assay on T-47D breast was more than 21 µM; in the assay on MCF7 breast, more than 25 µM.
